Measurements as given in patent publication US9944602B2, “Piperidinone herbicides” (E. I. DU PONT DE NEMOURS AND COMPANY, priority 2014, dated 2018).

Tests used:
Format in all cases: in vivo
[1] = test system: barnyardgrass (Echinochloa crus-galli); test: Test A preemergence barnyardgrass; details: 0 to 100 scale, 0 no effect, 100 complete control
Outline: (§1)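 Directed soil spray at planting gives preemergence data; foliar application to one- to two-leaf plants gives postemergence data. Response is visual injury relative to untreated controls about 10 d after treatment, scored 0–100.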

[2] = test system: kochia (Kochia scoparia); test: Test A preemergence kochia; details: 0 to 100 scale, 0 no effect, 100 complete control
Outline: as §1

[3] = test system: ragweed (common ragweed, Ambrosia elatior); test: Test A preemergence ragweed; details: 0 to 100 scale, 0 no effect, 100 complete control
Outline: as §1

[4] = test system: ryegrass, Italian (Italian ryegrass, Lolium multiflorum); test: Test A preemergence ryegrass, Italian; details: 0 to 100 scale, 0 no effect, 100 complete control
Outline: as §1

[5] = test system: foxtail, giant (giant foxtail, Setaria faberii); test: Test A preemergence foxtail, giant; details: 0 to 100 scale, 0 no effect, 100 complete control
Outline: as §1

[6] = test system: pigweed (Amaranthus retroflexus); test: Test A preemergence pigweed; details: 0 to 100 scale, 0 no effect, 100 complete control
Outline: as §1

[7] = test system: barnyardgrass (Echinochloa crus-galli); test: Test A postemergence barnyardgrass; details: 0 to 100 scale, 0 is no effect, 100 is complete control
Outline: as §1

[8] = test system: kochia (Kochia scoparia); test: Test A postemergence kochia; details: 0 to 100 scale, 0 is no effect, 100 is complete control
Outline: as §1

[9] = test system: ragweed (common ragweed, Ambrosia elatior); test: Test A postemergence ragweed; details: 0 to 100 scale, 0 is no effect, 100 is complete control
Outline: as §1

[10] = test system: ryegrass, Italian (Italian ryegrass, Lolium multiflorum); test: Test A postemergence ryegrass, Italian; details: 0 to 100 scale, 0 is no effect, 100 is complete control
Outline: as §1

[11] = test system: foxtail, giant (giant foxtail, Setaria faberii); test: Test A postemergence foxtail, giant; details: 0 to 100 scale, 0 is no effect, 100 is complete control
Outline: as §1

[12] = test system: pigweed (Amaranthus retroflexus); test: Test A postemergence pigweed; details: 0 to 100 scale, 0 is no effect, 100 is complete control
Outline: as §1

[13] = test system: wheat (Triticum aestivum); test: Test A postemergence wheat; details: 0 to 100 scale, 0 is no effect, 100 is complete control
Outline: as §1

[14] = test system: corn (Zea mays); test: Test A postemergence corn; details: 0 to 100 scale, 0 is no effect, 100 is complete control
Outline: as §1

[15] = test system: blackgrass (Alopecurus myosuroides); test: Test A postemergence blackgrass; details: 0 to 100 scale, 0 is no effect, 100 is complete control
Outline: as §1

[16] = test system: galium (catchweed bedstraw, Galium aparine); test: Test A postemergence galium; details: 0 to 100 scale, 0 is no effect, 100 is complete control
Outline: as §1

[17] = test system: rice (Oryza sativa); test: Test B flooded paddy test rice; details: Table B, Flood, 500 g ai/ha, scale 0 to 100
Outline: (§2)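 Plants at 2-leaf stage in pots flooded 3 cm above soil; compounds applied directly into paddy water, depth kept throughout.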

[18] = test system: sedge, umbrella (small-flower umbrella sedge, Cyperus difformis); test: Test B flooded paddy test sedge, umbrella; details: Table B, Flood, 500 g ai/ha, scale 0 to 100
Outline: as §2

[19] = test system: ducksalad (Heteranthera limosa); test: Test B flooded paddy test ducksalad; details: Table B, Flood, 500 g ai/ha, scale 0 to 100
Outline: as §2

[20] = test system: barnyardgrass (Echinochloa crus-galli); test: Test B flooded paddy test barnyardgrass; details: Table B, Flood, 500 g ai/ha, scale 0 to 100
Outline: as §2

Structure (SMILES): O=C1NCCC(c2cccc(OC(F)F)c2)C1C(=O)Nc1ccccc1F (racemic) [Compound 45]
- Barnyardgrass plant response rating ([1]; 125 g ai/ha): 20
- Barnyardgrass plant response rating ([1]; 500 g ai/ha): 70
- Kochia plant response rating ([2]; 125 g ai/ha): 0
- Kochia plant response rating ([2]; 500 g ai/ha): 0
- Ragweed plant response rating ([3]; 125 g ai/ha): 0
- Ragweed plant response rating ([3]; 500 g ai/ha): 0
- Ryegrass, Italian plant response rating ([4]; 125 g ai/ha): 0
- Ryegrass, Italian plant response rating ([4]; 500 g ai/ha): 0
- Foxtail, Giant plant response rating ([5]; 125 g ai/ha): 40
- Foxtail, Giant plant response rating ([5]; 500 g ai/ha): 80
- Pigweed plant response rating ([6]; 125 g ai/ha): 0
- Pigweed plant response rating ([6]; 500 g ai/ha): 0
- Plant response rating, Barnyardgrass ([7]; 125 g ai/ha): 0
- Plant response rating, Barnyardgrass ([7]; 500 g ai/ha): 60
- Plant response rating, Kochia ([8]; 125 g ai/ha): 0
- Plant response rating, Kochia ([8]; 500 g ai/ha): 0
- Plant response rating, Ragweed ([9]; 125 g ai/ha): 0
- Plant response rating, Ragweed ([9]; 500 g ai/ha): 0
- Plant response rating, Ryegrass, Italian ([10]; 125 g ai/ha): 0
- Plant response rating, Ryegrass, Italian ([10]; 500 g ai/ha): 0
- Plant response rating, Foxtail, Giant ([11]; 125 g ai/ha): 0
- Plant response rating, Foxtail, Giant ([11]; 500 g ai/ha): 50
- Plant response rating, Pigweed ([12]; 125 g ai/ha): 0
- Plant response rating, Pigweed ([12]; 500 g ai/ha): 0
- Plant response rating, Wheat ([13]; 125 g ai/ha): 0
- Plant response rating, Wheat ([13]; 500 g ai/ha): 0
- Plant response rating, Corn ([14]; 125 g ai/ha): 0
- Plant response rating, Corn ([14]; 500 g ai/ha): 0
- Plant response rating, Blackgrass ([15]; 125 g ai/ha): 0
- Plant response rating, Blackgrass ([15]; 500 g ai/ha): 20
- Plant response rating, Galium ([16]; 125 g ai/ha): 0
- Plant response rating, Galium ([16]; 500 g ai/ha): 0
- Plant response rating [17]: 0
- Plant response rating [18]: 0
- Plant response rating [19]: 50
- Plant response rating [20]: 0

Structure (SMILES): O=C1NCCC(c2cccc(OC(F)F)c2)C1C(=O)Nc1cccc(F)c1F (racemic) [Compound 46]
- Barnyardgrass plant response rating ([1]; 125 g ai/ha): 50
- Barnyardgrass plant response rating ([1]; 500 g ai/ha): 90
- Kochia plant response rating ([2]; 125 g ai/ha): 0
- Kochia plant response rating ([2]; 500 g ai/ha): 0
- Ragweed plant response rating ([3]; 125 g ai/ha): 0
- Ragweed plant response rating ([3]; 500 g ai/ha): 0
- Ryegrass, Italian plant response rating ([4]; 125 g ai/ha): 0
- Ryegrass, Italian plant response rating ([4]; 500 g ai/ha): 20
- Foxtail, Giant plant response rating ([5]; 125 g ai/ha): 90
- Foxtail, Giant plant response rating ([5]; 500 g ai/ha): 90
- Pigweed plant response rating ([6]; 125 g ai/ha): 0
- Pigweed plant response rating ([6]; 500 g ai/ha): 0
- Plant response rating, Barnyardgrass ([7]; 125 g ai/ha): 60
- Plant response rating, Barnyardgrass ([7]; 500 g ai/ha): 90
- Plant response rating, Kochia ([8]; 125 g ai/ha): 0
- Plant response rating, Kochia ([8]; 500 g ai/ha): 0
- Plant response rating, Ragweed ([9]; 125 g ai/ha): 0
- Plant response rating, Ragweed ([9]; 500 g ai/ha): 0
- Plant response rating, Ryegrass, Italian ([10]; 125 g ai/ha): 0
- Plant response rating, Ryegrass, Italian ([10]; 500 g ai/ha): 0
- Plant response rating, Foxtail, Giant ([11]; 125 g ai/ha): 20
- Plant response rating, Foxtail, Giant ([11]; 500 g ai/ha): 80
- Plant response rating, Pigweed ([12]; 125 g ai/ha): 0
- Plant response rating, Pigweed ([12]; 500 g ai/ha): 0
- Plant response rating, Wheat ([13]; 125 g ai/ha): 0
- Plant response rating, Wheat ([13]; 500 g ai/ha): 50
- Plant response rating, Corn ([14]; 125 g ai/ha): 0
- Plant response rating, Corn ([14]; 500 g ai/ha): 50
- Plant response rating, Blackgrass ([15]; 125 g ai/ha): 0
- Plant response rating, Blackgrass ([15]; 500 g ai/ha): 40
- Plant response rating, Galium ([16]; 125 g ai/ha): 0
- Plant response rating, Galium ([16]; 500 g ai/ha): 0
- Plant response rating [17]: 0
- Plant response rating [18]: 0
- Plant response rating [19]: 100
- Plant response rating [20]: 65
